Data from patent US20140005234A1, “INSECTICIDAL N-SUBSTITUTED SULFILIMINE AND SULFOXIMINE PYRIDINE N-OXIDES” (Dow AgroSciences LLC, priority 2012, published 2014).

What follows are compounds tested on Green Peach Aphid (GPA) (assay: Insecticidal testing for Green Peach Aphid (GPA), foliar spray on infested cabbage seedlings). Conditions: 200 ppm test compound sprayed on cabbage seedlings infested with GPA; graded after three days; Abbott-corrected % control, qualitative rating.
Assay type: in vivo
Set-up: key to GPA Control @ 200 ppm: A: 80-100; B: More than 0-Less than 80; C: Not Tested; D: No activity noticed in this bioassay
Source text: Insecticidal Testing for Green Peach Aphid (GPA) GPA is the most significant aphid pest of peach trees, causing decreased growth, shriveling of the leaves, and the death of various tissues. It is also hazardous because it acts as a vector for the transport of plant viruses, such as potato virus Y and potato leafroll virus to members of the nightshade/potato family Solanaceae, and various mosaic viruses to many other food crops. GPA attacks such plants as broccoli, burdock, cabbage, carrot, cauliflower, daikon, eggplant, green beans, lettuce, macadamia, papaya, peppers, sweet potatoes, tomatoes, watercress, and zucchini, among other plants. GPA also attacks many ornamental crops such as carnation, chrysanthemum, flowering white cabbage, poinsettia, and roses. GPA has developed resistance to many pesticides. Certain compounds disclosed in this document were tested against GPA using procedures described as follows. Cabbage seedlings grown in 3-inch pots, with 2-3 small (3-5 cm) true leaves, were used as test substrate. The seedlings were infested with 20-50 GPA (wingless adult and nymph stages) one day prior to chemical application. Four pots with individual seedlings were used for each treatment. Test compounds (2 mg) were dissolved in 2 mL of acetone/methanol (1:1) solvent, forming stock solutions of 1000 ppm test compound. The stock solutions were diluted 5× with 0.025% Tween® 20 (Sigma-Aldrich, Inc., St. Louis, Mo.) in H2O to obtain the solution at 200 ppm test compound. A hand-held aspirator-type sprayer was used for spraying a solution to both sides of […] leaves until runoff. Reference plants (solvent check) were sprayed with the diluent only containing 20% by volume of acetone/methanol (1:1) solvent. Treated plants were held in a holding room for three days at approximately 25° C. and ambient relative humidity (RH) prior to grading. Evaluation was conducted by counting the number of live aphids per plant under a microscope. Percent Control was measured by using Abbott's correction formula (W. S. Abbott, “A Method of Computing the Effectiveness of an Insecticide” J. Econ. Entomol. 18 (1925), pp. 265-267) as follows: Corrected % Control=100*(X−Y)/X • where • X=No. of live aphids on solvent check plants and • Y=No. of live aphids on treated plants The results provided in Table 6 below are based on the qualitative ratings set forth in Table 5.

| Structure (SMILES) | GPA Control @ 200 ppm |
| --- | --- |
| CS(=O)(Cc1ccc(Cl)[n+]([O-])c1)=N[N+](=O)[O-] (stereo not shown) [(20)] | D |
| CS(=O)(Cc1ccc(C(F)(F)F)[n+]([O-])c1)=NC(N)=O (stereo not shown) [(22)] | D |
| CC(c1ccc(Cl)[n+]([O-])c1)S(C)(=O)=NC(N)=O (stereo not shown) [(23)] | D |

Same assay, conditions: Myzus persicae, foliar, 72 h; 200 ppm test compound sprayed on cabbage seedlings infested with GPA; graded after three days; Abbott-corrected % control, qualitative rating

| Structure (SMILES) | pest or weed control at 200 ppm [%] |
| --- | --- |
| CC(c1ccc(C(F)(F)F)[n+]([O-])c1)/S(C)=N\C#N (stereo not shown) [(5)] | 80 to 100 |
| CS(=O)(Cc1ccc(C(F)(F)F)[n+]([O-])c1)=NC#N (stereo not shown) [(9), [methyl(oxido){[1-oxido-6-(trifluoromethyl)pyridin-3-yl]methyl}-λ^6-sulfanylidene]cyanamide] | 80 to 100 |
| CC(C)(c1ccc(C(F)(F)F)[n+]([O-])c1)S(C)(=O)=NC#N (stereo not shown) [(10)] | 80 to 100 |
| CC(c1ccc(Cl)[n+]([O-])c1)S(C)(=O)=N[N+](=O)[O-] (stereo not shown) [(18)] | 0 to 80 |
| CC(c1ccc(Cl)[n+]([O-])c1)S(C)(=O)=NC#N (stereo not shown) [(19)] | 80 to 100 |
| CC(c1ccc(C(F)(F)F)[n+]([O-])c1)S(C)(=O)=N[N+](=O)[O-] (stereo not shown) [(21)] | 80 to 100 |
| CC(c1ccc(C(F)(F)F)[n+]([O-])c1)S(C)(=O)=NC#N (stereo not drawn) [Compound (6), N-Cyano-S-[1-(6-trifluoromethyl-3-pyridinyl)ethyl]-S-methylsulfoximine N-oxide] | 80 to 100 |
